Test results reported in US20240216395A1, “19-NOR C3,3-DISUBSTITUTED C21 -N-PYRAZOLYL STEROID FOR USE IN TREATING MAJOR DEPRESSIVE DISORDER AND […]” (priority 2021, published 2024).

Experiments:
[1] = tested on: nondependent, recreational users of CNS depressants; test: Abuse potential main study, treatment phase: subjective VAS measures (Drug Liking, Overall Drug Liking, Take Drug Again, High, Good/Bad/Any Drug Effects, Alertness/Drowsiness, Drug Similarity)
[2] = tested on: nondependent, recreational users of CNS depressants; test: Abuse potential main study, treatment phase: TEAEs; type: in vivo, human; conditions: treatment phase
Protocol: The main study consisted of 4 phases (FIG. 30B). The screening phase was a 1-day visit occurring within 21 days of the beginning of the qualification phase. The qualification phase was a 4-day, inpatient period to ensure participants could discriminate between alprazolam (active comparator) and placebo, and that they could tolerate the alprazolam 2-mg doses. Participants received single-oral doses of alprazolam 2 mg and placebo in a crossover manner 24 hours apart, and if they could discriminate between the two medications, they continued to the treatment phase. The treatment phase was a double-blind, active- and placebo-controlled, 6-way crossover design where participants were randomized equally to a single oral dose of 1 of 6 treatments: placebo, alprazolam (1.5 and 3 mg), and Compound (1) (30, 60, and 90 mg). The Compound (1) doses were based on the results from the first part, dose selection, and treatments were separated by 7 days. The follow-up phase was a 1-day visit occurring 7 (2) days after the treatment phase.
Safety and tolerability endpoints included the frequency and severity of AEs and SAEs, the change from baseline in clinical laboratory assessments, vital signs, and ECG, and suicidality assessed by the Columbia-Suicide Severity Rating Scale (C-SSRS).
The dose selection safety set included all participants who received 1 dose of Compound (1). The main study qualification safety set included all participants who received ≥1 dose of alprazolam. For the treatment phase, the randomized set included all participants who were randomized and the safety set included all participants who received ≥1 dose of Compound (1) or alprazolam. The completer set included all participants in the randomized set who completed all treatment periods, had sufficient data for evaluation of the primary endpoint, and had ≥1 observation within 2 hours of Tmax for each treatment for Drug Liking VAS scores. […] The PK set included all participants in the treatment phase who received 1 dose of Compound (1) and had 1 PK sample after dosing.

[3] = Alprazolam 1.5 mg - placebo (study validity)
[4] = Alprazolam 3 mg - placebo (study validity)

SMILES: Cc1nnc2n1-c1ccc(Cl)cc1C(c1ccccc1)=NC2 [Alprazolam, alprazolam, reference compound]
- Drug Liking Emax difference ([1]; Alprazolam 1.5 mg - placebo): 22.50
- Overall Drug Liking Emax difference ([1]; Alprazolam 1.5 mg - placebo): 24.00
- Take Drug Again Emax difference ([1]; Alprazolam 1.5 mg - placebo): 24.00
- Bad Drug Effects Emax difference [1, 3]: 0.00
- Good Drug Effects Emax difference [1, 3]: 49.00
- High Effects Emax difference [1, 3]: 43.80
- Drug Liking Emax difference ([1]; Alprazolam 3 mg - placebo): 25.52
- Overall Drug Liking Emax difference ([1]; Alprazolam 3 mg - placebo): 26.00
- Take Drug Again Emax difference ([1]; Alprazolam 3 mg - placebo): 29.00
- Bad Drug Effects Emax difference [1, 4]: 1.00
- Good Drug Effects Emax difference [1, 4]: 53.47
- High Effects Emax difference [1, 4]: 51.65
- Drug Similarity: Placebo Similarity median score ([1]; all dosages, 12 hours postdose): zero
- Drug Similarity: Benzodiazepines Similarity median score ([1]; alprazolam 1.5 mg): 92.5
- Drug Similarity: Opioids Similarity median score ([1]; alprazolam 3 mg): 40.0
- Back pain (TEAE) ([2]; Alprazolam 1.5 mg (n = 71)): 0 n
- Confusional state (TEAE) ([2]; Alprazolam 1.5 mg (n = 71)): 0 n
- Fine motor skill dysfunction (TEAE) ([2]; Alprazolam 1.5 mg (n = 71)): 0 n
- Hiccups (TEAE) ([2]; Alprazolam 1.5 mg (n = 71)): 0 n
- Irritability (TEAE) ([2]; Alprazolam 1.5 mg (n = 71)): 0 n
- Swelling face (TEAE) ([2]; Alprazolam 1.5 mg (n = 71)): 0 n
- Tremor (TEAE) ([2]; Alprazolam 1.5 mg (n = 71)): 0 n
- Feeling drunk (TEAE) ([2]; Alprazolam 3 mg (n = 66)): 0 n
- Fine motor skill dysfunction (TEAE) ([2]; Alprazolam 3 mg (n = 66)): 0 n
- Irritability (TEAE) ([2]; Alprazolam 3 mg (n = 66)): 0 n
- Swelling face (TEAE) ([2]; Alprazolam 3 mg (n = 66)): 0 n
- Tremor (TEAE) ([2]; Alprazolam 3 mg (n = 66)): 0 n
- Upper respiratory tract infection (TEAE) ([2]; Alprazolam 3 mg (n = 66)): 0 n
